One test addresses T1, TXA2 synthase (Homo sapiens, UniProt P24557).
T1 construct: using microsomal fractions from human platelets as enzyme source; from tissue; host or cells: microsomal fractions from human platelets
T1 sequence (P24557 1-533): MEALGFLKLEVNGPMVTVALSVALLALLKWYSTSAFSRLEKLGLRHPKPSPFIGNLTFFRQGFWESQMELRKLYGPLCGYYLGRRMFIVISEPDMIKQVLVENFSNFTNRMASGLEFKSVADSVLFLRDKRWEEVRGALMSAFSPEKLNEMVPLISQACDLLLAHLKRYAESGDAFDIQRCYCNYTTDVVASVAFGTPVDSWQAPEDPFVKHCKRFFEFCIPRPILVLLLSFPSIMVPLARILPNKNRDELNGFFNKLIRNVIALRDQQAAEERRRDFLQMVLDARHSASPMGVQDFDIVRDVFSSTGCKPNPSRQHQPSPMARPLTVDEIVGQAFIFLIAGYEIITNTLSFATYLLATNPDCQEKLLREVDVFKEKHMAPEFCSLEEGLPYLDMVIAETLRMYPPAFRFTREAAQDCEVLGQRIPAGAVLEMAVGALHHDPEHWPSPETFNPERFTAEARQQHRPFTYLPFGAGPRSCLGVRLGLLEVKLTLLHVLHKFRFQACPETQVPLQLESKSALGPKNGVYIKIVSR
In words: Thromboxane Synthase Inhibition, In Vitro (TXA2 Synth. Inhib.). Type of test: biochemical. As to conditions: human platelet microsomes, 10 μM 14C-PGH2, 22° C., 2 min. As to the method: (2) Thromboxane Synthase Inhibition, In Vitro (TXA2 Synth. Inhib.)
TXA2 synthase activity is measured by following the conversion of ^14 C-prostaglandin endoperoxide (PGH2) to ^14 C-thromboxane A2 (TXA2) using microsomal fractions from human platelets as enzyme source. In the aqueous incubation medium, the TXA2 decomposes rapidly into TXB2. The amount of TXA2 synthase is adjusted so that under the conditions of the assay approximately 80-90% of the substrate, PGH2, is converted to product in control tubes. To prepare ^14 C-PGH2, ^14 C-AA (50-60 mCi/mmole; Rose Chem.) is incubated with sheep seminal vesicular gland microsomes for 1.5 minutes at 37° C. and then the ^14 C-PGH2 is extracted with diethylether, purified on columns oof Sephadex LH-20 or silicic acid, and stored in acetone at -70° C. Incubations are done as follows. Sufficient ^14 C-PGH2 to yield a final substrate concentration of 10 μM (30,000 cpm) is added to the incubation tubes and then the acetone is removed under nitrogen. The tubes are placed in an ice bath and then 215 μl of ice cold phosphate buffered saline, 10 μl of ethanol (control) or of test drug in ethanol, and 25 μl of the microsomal suspension are added with mixing in that order as rapidly as possible. The tubes are incubated at 22° C. for 2 minutes, the reaction is stopped and then the radioactive products and the unconverted PGH2 are extracted and analyzed by thin layer chromatography. […] The amount of ^14 C-PGH2 converted to products was used as a measure of TXA2 synthase activity. Inhibitors were tested initially at a final concentration 100 μM. Results obtained with representative compounds of the present invention in this assay are summarized hereafter in Tables I and II. IC50 is the drug concentration (μMolar) which inhibits TXA2 activity by 50%.

For test [1], the target named is T2, PAF binding to dog platelets (Canis lupus familiaris, UniProt A0A8I3NSH0).
T2 construct: from tissue; host or cells: washed platelets from citrate-treated dog blood
T2 sequence (A0A8I3NSH0 1-343): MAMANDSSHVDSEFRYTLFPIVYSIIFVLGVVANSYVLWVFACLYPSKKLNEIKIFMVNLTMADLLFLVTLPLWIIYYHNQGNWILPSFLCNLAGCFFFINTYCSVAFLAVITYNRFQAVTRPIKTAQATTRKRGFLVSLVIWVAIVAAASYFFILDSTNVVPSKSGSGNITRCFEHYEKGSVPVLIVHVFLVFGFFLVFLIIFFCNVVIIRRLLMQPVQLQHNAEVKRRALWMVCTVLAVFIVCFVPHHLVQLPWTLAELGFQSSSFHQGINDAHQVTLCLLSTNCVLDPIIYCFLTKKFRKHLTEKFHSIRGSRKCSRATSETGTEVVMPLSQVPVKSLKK
In words: PAF Radioreceptor Binding Assay (PAF Binding). As to conditions: inhibition of 3H-PAF binding to dog platelets, 10 min, room temperature. As for the experimental part:
(1) PAF Radioreceptor Binding Assay (PAF Binding)
Platelet rich plasma is prepared by centrifugation of citrate-treated dog blood. Acidification to pH 6.5 with 0.15M citric acid and centrifugation for 10 minutes at 1000×g yields a platelet pellet which is then washed by resuspension in EDTA-Phosphate Buffered Saline (PBS) and recentrifuged. The washed platelet preparation is adjusted to 2×10^7 platelets/50 μl in 0.1% bovine serum albumin-PBS.
To a 400 μl microfuge tube containing 50 μl silicone oil (specific gravity 1.023) is added buffer, PAF standard or analog, or an extract to bring the aqueous volume to 150 μl. 50 μl of ^3 H-PAF (10,000 cpm, 45 Ci/mM) is added followed by 2×10^7 dog platelets. After mixing, incubating for 10 minutes at room temperature, and centrifuging for 1 minute in a Beckman Microfuge B (8000×g), the pellet is removed by clipping off the tip of the tube, the platelets are solubilized with 200 μl of 50% methanol and counted in 10 ml of Aquasol. […] Results obtained with representative copounds of the present invention in this assay are summarized hereinafter in Tables I and II. IC50 is drug concentration (μMolar) which inhibits PAF binding to dog platelets by 50%.

The subject of test [2] is PAF. In words: Inhibition of PAF-Induced Platelet Aggregation (Inhib. of PAF Platelet Reduction). Type of test: in vivo, guinea pig. As to conditions: Cavia porcellus, iv, 3 mg/kg i.v. As for the experimental part: (5) Inhibition of PAF-Induced Platelet Aggregation (Inhib. of PAF Platelet Reduction)
Guinea pigs (anesthetized) are set up to withdraw blood for platelet counting. The animal is allowed to stabilize after completion of surgical procedures. The carotid catheter is allowed to bleed back blood and then is filled, prior to each sample withdrawal with sodium citrate 3.8% (0.15 ml). Blood (0.25 ml) is withdrawn 30 seconds prior to the PAF challenge and at 15, 30 and 60 seconds after the PAF challenge. This first PAF challenge is used as the control, assuming sufficient decreases in platelet count are observed. The amount of PAF used will be approximately 50 ng/kg, however, this can be increased to achieve the desired decreases in platelet count. Fifteen minutes after the control PAF challenge, intravenous drug dosing begins, with animals being dosed at 30 minute intervals; PAF challenge follows 15 minutes after each intravenous dose. Three intravenous drug doses are used in each experiment. Initial drug doses are 1, 3 and 10 mg/kg i.v. Inhibition of PAF platelet reduction at 3 mg/kg i.v. for representative compounds of the invention are summarized hereinafter in Tables I and II. Percent inhibition is [formula]

The subject of test [3] is PAF. In words: Inhibition of PAF Induced Guinea Pig Bronchoconstriction Test (Inhib. of PAF Broncho.). In kind it is in vivo, guinea pig (Hartley strain). To be noted: Cavia porcellus, iv; 1 mg/kg i.v. (1 min. pretreat). As for the experimental part:
(3) Inhibition of PAF Induced Guinea Pig Bronchoconstriction Test (Inhib. of PAF Broncho.)
Male guinea pigs (Hartley strain) weighing 300 to 500 g are anesthetized with urethane (2 g/kg) intraperitoneally and a polyethylene cannula is inserted into the jugular vein for drug administration. Tracheal pressure is recorded from a cannula inserted in the trachea and connected to a Statham pressure transducer. Propranolol (0.1 mg/kg) is administered intravenously five minutes before challenge with synthetic PAF, the animal's skeletal muscles are then paralyzed with succinylcholine (1.2 mg/kg i.v.), and the animal is respirated using a Harvard small animal respirator operating at 40 breaths/min and 2.5 cc stroke volume. Under these conditions PAF induces a dose-dependent increase in ventilatory pressure over a dose range of 0.5 to 5 μg/kg i.v. For screening purposes animals are challenged with a single dose of PAF (10 μg/kg i.v.).
The peak increase in ventilatory pressure (cm H2 O) is recorded for three control animals and five drug-treated animals and the percent inhibition determined from the following formula [formula] Results obtained with representative compounds of the invention in this test are summarized hereinafter in Tables I and II.

Our source for the IC50 and inhibition in vivo values is patent US4663332A, “5-substituted N-alkylated tetrazoles” (Hoffman-La Roche Inc., priority 1985, dated 1987).

A value given as a limit tells only on which side of the number the result lay.

As to `CCCc1c(OCc2cccc(-c3nnnn3CCCc3cccnc3)c2)ccc(C(C)=O)c1O` [1-[2-hydroxy-3-propyl-4-[[3-[1-[3-(3-pyridinyl)propyl]-1H-tetrazol-5-yl]phenyl]methoxy]phenyl]ethanone], the concentration for half-maximal inhibition (IC50) against TXA2 synthase worked out at 1000 nM; in test [1], 200 nM.

In the case of `CCCc1c(O)c(C(C)=O)cc(Cl)c1OCc1cccc(-c2nnnn2CCCc2cccnc2)c1` [1-[5-chloro-2-hydroxy-3-propyl-4-[[3-[1-[3-(3-pyridinyl)propyl]-1H-tetrazol-5-yl]phenyl]methoxy]phenyl]ethanone], the inhibition in vivo at 3 mg/kg with PAF [2] is 25%. Also, the inhibition in vivo at 1 mg/kg with PAF [3] is 43 ± 21%. Further, the half-maximal inhibitory concentration (IC50) in test [1] turned out to be 25 nM.

Turning to `CCCc1c(OCCCCCc2nnn(CCCc3cccnc3)n2)ccc(C(C)=O)c1O` [5 3 3-pyridyl, 1-[2-Hydroxy-3-propyl-4-[5-[2-[3-(3-pyridinyl)propyl]-2H-tetrazol-5-yl]pentyloxy]phenyl]ethanone], the values for the 50% inhibitory concentration (IC50) (on TXA2 synthase; in test [1]) were 100 to 1000 nM and over 1000 nM, respectively. In addition, the inhibition in vivo at 1 mg/kg with PAF [3] amounted to 38 ± 11%.

Consider `CCCc1c(OCCCCCc2nnn(CCCCc3cccnc3)n2)ccc(C(C)=O)c1O` [5 4 3-pyridyl, 1-[2-Hydroxy-3-propyl-4-[5-[2-[4-(3-pyridinyl)butyl]-2H-tetrazol-5-yl]pentyloxy]phenyl]ethanone], for which the IC50 against TXA2 synthase is 100 to 1000 nM; in test [1], 480 nM. Moreover, the inhibition in vivo at 1 mg/kg in the test with PAF [3] worked out at 94 ± 6%.

Regarding `CCCc1c(O)c(C(C)=O)cc(Cl)c1OCCCCCc1nnnn1CCCCc1cccnc1` [Cl H 5 4 3-pyridyl, 1-[5-chloro-2-hydroxy-3-propyl-4-[5-[1-[4-(3-pyridinyl)butyl]-1H-tetrazol-5-yl]pentyloxy]phenyl]ethanone], the values for the half-maximal inhibitory concentration (IC50) (at TXA2 synthase; in test [1]) were 1000 nM and 140 nM, respectively. Further, the inhibition in vivo at 3 mg/kg in the test with PAF [2] worked out at 7%.

For the molecule `CCCc1c(OCCCCCc2nnnn2CCCc2cccnc2)ccc(C(C)=O)c1OC(C)=O` [H Ac 5 3 3-pyridyl, 1-[2-Acetoxy-3-propyl-4-[5-[1-[3-(3-pyridinyl)propyl]-1H-tetrazol-5-yl]pentyloxy]phenyl]ethanone], the IC50 on TXA2 synthase is 100 to 1000 nM; in test [1] it was 180 nM. In addition, the inhibition in vivo at 3 mg/kg in the test on PAF [2] is 31%. The inhibition in vivo at 1 mg/kg in the test with PAF [3] amounted to 84.8 ± 11%.

For the molecule `CCCc1c(OCCCc2nnnn2CCCc2cccnc2)ccc(C(C)=O)c1O` [H H 3 3 3-pyridyl, 1-[2-Hydroxy-3-propyl-4-[3-[1-[3-(3-pyridinyl)propyl]-1H-tetrazol-5-yl]propoxy]phenyl]ethanone], the half-maximal inhibitory concentration (IC50) was 10 to 100 nM at TXA2 synthase and 250 nM in test [1]. Also, the inhibition in vivo at 1 mg/kg in the test on PAF [3] turned out to be 53 ± 17%.

With `CCCc1c(OCCCc2nnnn2CCCCc2cccnc2)ccc(C(C)=O)c1O` [H H 3 4 3-pyridyl, 1-[2-Hydroxy-3-propyl-4-[3-[1-[4-(3-pyridinyl)butyl]-1H-tetrazol-5-yl]propoxy]phenyl]ethanone], the values for the 50% inhibitory concentration (IC50) (against TXA2 synthase; in test [1]) were 100 to 1000 nM and 450 nM, respectively. Further, the inhibition in vivo at 3 mg/kg with PAF [2] came to 40%. For the same molecule, the inhibition in vivo at 1 mg/kg in the test on PAF [3] was 59 ± 12%.

On to `CCCc1c(OCCCCc2nnnn2CCc2cccnc2)ccc(C(C)=O)c1O` [H H 4 2 3-pyridyl, 1-[2-Hydroxy-3-propyl-4-[4-[1-[2-(3-pyridinyl)ethyl]-1H-tetrazol-5-yl]butoxy]phenyl]ethanone], for which the inhibition in vivo at 3 mg/kg with PAF [2] stood at 48%. Moreover, in the test on PAF [3], the inhibition in vivo at 1 mg/kg was -15 ± 6%. For the same molecule, in test [1], the concentration for half-maximal inhibition (IC50) amounted to 1000 nM.

With `CCCc1c(OCCCCc2nnnn2CCCn2ccnc2)ccc(C(C)=O)c1O` [H H 4 3 1-imidazolyl, 1-[2-Hydroxy-3-propyl-4-[4-[1-[3-(1H-imidazol-1-yl)propyl]-1H-tetrazol-5-yl]butoxy]phenyl]ethanone], the IC50 is 100 to 1000 nM on TXA2 synthase and 175 nM in test [1]. The inhibition in vivo at 3 mg/kg in the test with PAF [2] came to 3%. For the same molecule, the inhibition in vivo at 1 mg/kg in the test with PAF [3] worked out at 8 ± 8%.

On to `CCCc1c(OCCCCCc2nnnn2CCCc2cccnc2)ccc(C(C)=O)c1O` [H H 5 3 3-pyridyl, 1-[2-hydroxy-3-propyl-4-[5-[1-[3-(3-pyridinyl)propyl]-1H-tetrazol-5-yl]pentyloxy]phenyl]ethanone], for which the 50% inhibitory concentration (IC50) is 100 to 1000 nM at TXA2 synthase and 150 nM in test [1]. In addition, the inhibition in vivo at 3 mg/kg in the test with PAF [2] is 12%. The inhibition in vivo at 1 mg/kg in the test on PAF [3] worked out at 96 ± 1%.

With `CCCc1c(OCCCCCc2nnnn2CCCCc2cccnc2)ccc(C(C)=O)c1O` [H H 5 4 3-pyridyl, 1-[2-Hydroxy-3-propyl-4-[5-[1-[4-(3-pyridinyl)butyl]-1H-tetrazol-5-yl]pentyloxy]phenyl]ethanone], the figures for the IC50 (on TXA2 synthase; in test [1]) were 100 to 1000 nM and 275 nM, respectively. In the test on PAF [2], the inhibition in vivo at 3 mg/kg stood at 0%. In the test on PAF [3], the inhibition in vivo at 1 mg/kg amounted to 58 ± 14%.

The term IC50 denotes the concentration that gives 50% inhibition. Low values mean greater potency, high ones weaker potency. A word on the inhibition in vivo: it is the change of the read-out against control, counted positive when it falls.
